Like-named read-outs stand apart in the source and are kept apart here.
Experiments:
BCAT1 = target: T1, BCAT1 (Homo sapiens, UniProt P54687); assay: BCAT1 enzyme inhibition (human), Glutamate Glo luminescence; assay type: biochemical
T1 sequence (P54687 1-386): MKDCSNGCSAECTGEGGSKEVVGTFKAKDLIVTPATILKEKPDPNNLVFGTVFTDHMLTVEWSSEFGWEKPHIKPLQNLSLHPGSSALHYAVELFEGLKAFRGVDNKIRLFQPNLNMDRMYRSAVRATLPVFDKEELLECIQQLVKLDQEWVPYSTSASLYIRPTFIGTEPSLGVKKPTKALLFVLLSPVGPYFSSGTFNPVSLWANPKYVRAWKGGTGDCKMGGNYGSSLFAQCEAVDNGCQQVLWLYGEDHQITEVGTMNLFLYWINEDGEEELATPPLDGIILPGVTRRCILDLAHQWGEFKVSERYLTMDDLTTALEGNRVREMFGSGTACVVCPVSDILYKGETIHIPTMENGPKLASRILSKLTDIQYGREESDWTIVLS
Method in brief: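 BCAT1 enzyme (0.06 ug/ml final) was preincubated with compound (3-0.0001 μM, 0.3% DMSO) for 10 or 60 min at room temperature in 50 mM Tris/0.05% TWEEN-20. The reaction then ran 10 min with 300 μM L-leucine and 250 μM alpha-ketoglutaric acid, was acid-quenched, and glutamate was read by luminescence. IC50 came from a 4-parameter fit, normalized to 10 μM VS558CSA inhibition.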

GM00371 cells = assay: Viability assay (Cell titer glo) in the 3-HIB assay; assay type: cell-based, human; conditions: read-out: 3HIB INHIBITION IC50 (μM) MEAN GM00371 cells Viablility Assay
Method in brief: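 GM00371 cells (10,000/well, EMEM/15% FBS) were exposed for 24 h at 37 °C to compounds in 1:3 serial dilution from 30 μM top concentration in EMEM. Reference Compound B at 30 μM served as maximal-toxicity control. Viability read as CellTiter-Glo luminescence.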

[1] = 3-HIB assay in vitro, direct MS assay of conditioned media; assay type: cell-based, human; conditions: GM00371 cells, read-out: 3HIB INHIBITION IC50 (μM) MEAN GM00371 cells Direct MS Assay
Description: Cell Plating: Cells (Coriell Institute GM00371 cells) were plated (96-well clear bottom sterile plate; Greiner 655098) at 10,000 cells/0.1 mL in Eagle's minimum essential medium (EMEM)/15% FBS (Gibco 16000-044) with a Combi dispenser in a cell culture hood and incubated at 37° C. and 5% CO2 overnight.
Compound Dilution: Compound were prepared as 33.3× intermediate dilution in DMSO in 96 well round polystyrene plates. For 30 μM final maximum start with 30 μL of 10 mM in DMSO. 10-12 1:3 serial dilutions were prepared from left to right (20 μL+40 μL DMSO). A 10× secondary dilution was prepare in EMEM by taking 7.5 μL 33.3× and transfer to replicate 96 well round polystyrene plates and then adding 242.5 μL EMEM A 1× final dilution in EMEM was prepared by taking 50 μL 10× dilution and transferring to replicate 96 well polypropylene assay block (Costar 3956) and adding 450 μL EMEM A control was prepared for maximal compound inhibition by taking 20 μL 10 mM Reference Compound A and adding 40 μL DMSO for a concentration of 3.3 mM To 7.5 μL of the 3.3 mM Reference Compound A solution and added 242.5 μL EMEM to make a 100 μM solution. The subsequent Reference Compound A solution was diluted with EMEM to achieve a final concentration of 10 μM. The structure of Reference Compound A is:
A control was prepared for maximal compound toxicity by taking 7.5 μL Reference Compound B and 242.5 μL EMEM to make […]. 50 μL of that 100 μM Reference Compound B solution was combined with 450 μL EMEM to achieve a concentration of 30 μM. The structure of Reference Compound B is
A DMSO Control was prepared by dilution 7.5 μL with 242.5 μL EMEM and taking 50 μL of the subsequent solution and diluting with 450 μL EMEM.
Compound Treatment: Media was aspirated from the cells and 100 μL of D-PBS (ThermoFisher 14190144) was added and then removed. 100 μL of diluted compound was added to the cells in the place and the cells were incubated at 37° C. and 5% CO2 for 24 hours.
Collection of Conditioned Media: For 3HIB MS detection: 20 μL conditioned media was removed from the cells and was transferred to a labeled replicate 96 well polypropylene assay plate (VWR 62408-946). And the plate was heat sealed and stored at −80° C.
3HIB Derivatization (Generalized SOP): The media collected for 3HIB MS detection was derivatized under the following conditions. Buffer: 0.1M 1-Ethyl-3-(3-dimethylaminopropyl)carbodiimide (EDC) dissolved in 0.1 M 2-(N-morpholino)ethanesulfonic acid ([…]) adjusted to pH 5.6. Buffer prep: weighed 10.6 g MES (Sigma #M-5287) per 500 mL HPLC grade H2O. Stored at 4° C.; 0.1M EDC: Weighed 1.971 g EDC (#E-1769) per 100 mL MES. Adjusted pH to 5.6 with ˜40 drops of 1N NaOH and stored at 4° C. Buffer has a short half-life should be used within two weeks.
Derivatization: To 20 μL sample was added 60 μL 5 uM 3HIB-4C13 internal standard followed by 20 μL EDC in MES and 100 μL MES. The plate was sealed and incubate at 50° C. for […] then centrifuged at 4000 rpm at 6° C. for 10 minutes. LC-MS analysis was then conducted and the data was processed using standard methods.

BCAT2 = target: T2, BCAT2 (Homo sapiens, UniProt O15382); assay: BCAT2 enzyme inhibition (human); assay type: biochemical
T2 sequence (O15382 28-392): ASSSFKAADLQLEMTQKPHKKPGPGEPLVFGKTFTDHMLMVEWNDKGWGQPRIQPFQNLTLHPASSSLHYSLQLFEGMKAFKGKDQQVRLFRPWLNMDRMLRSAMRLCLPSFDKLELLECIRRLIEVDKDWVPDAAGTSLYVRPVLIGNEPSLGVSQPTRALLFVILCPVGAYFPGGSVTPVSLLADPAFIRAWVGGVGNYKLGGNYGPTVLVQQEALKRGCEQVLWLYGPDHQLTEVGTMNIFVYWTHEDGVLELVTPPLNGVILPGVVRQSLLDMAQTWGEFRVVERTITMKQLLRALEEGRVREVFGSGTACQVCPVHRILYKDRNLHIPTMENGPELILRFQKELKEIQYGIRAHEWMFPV
Method in brief: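 Cell-free coupled fluorescent assay: human BCATm converts branched-chain amino acids and α-ketoglutarate to L-glutamate, which L-glutamate oxidase and HRP link to resorufin formation from Amplex Red; activity taken as reduced glutamate signal.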

SMILES	IC50 (BCAT2) [nM]	IC50 ([1]; Homo sapiens, 24 h) [µM]	IC50 (BCAT1) [nM]	IC50 (GM00371 cells; Homo sapiens, 24 hours) [µM]	IC50 ([1]; 24 hours) [µM]	IC50 (GM00371 cells; 24 hours) [µM]	IC50 (GM00371 cells; Homo sapiens, 24 h) [µM]
CNC(=O)c1ccc2c(c1)nc(-c1ccccn1)n2[C@@H]1CCC[C@H](NC(=O)c2ccc(Br)s2)C1 [Compound 102]	–	–	≥ 1000	0.5 to 1	0.5 to 1	–	–
CNC(=O)c1ccc2c(c1)nc(-c1ccccn1)n2[C@@H]1CCC[C@H](NC(=O)c2ccc(Br)s2)C1 [Compound 105]	–	–	500 to 1000	–	0.1 to 0.5	0.5 to 1	–
CNC(=O)c1ccc2c(c1)nc(-c1ccccn1)n2[C@H]1CC[C@@H](NC(=O)c2ccc(C#N)s2)C1 [Compound 131]	500 to 1000	≥ 1	–	–	–	–	≥ 1
N#Cc1ccc(C(=O)N[C@@H]2CCC[C@H](n3c(-c4ccccn4)nc4cc(CO)ccc43)C2)s1 [Compound 133]	100 to 500	≥ 1	–	–	–	–	≥ 1
CNC(=O)c1ccc2c(c1)nc(-c1ncccc1O)n2[C@H]1CCC[C@@H](NC(=O)c2ccc(Br)s2)C1 [Compound 152]	< 100	0.1 to 0.5	–	–	–	–	0.1 to 0.5
CNC(=O)c1ccc2c(c1)nc(-c1c(O)cccc1F)n2[C@H]1CCC[C@@H](NC(=O)c2ccc(C#N)s2)C1 [Compound 172]	< 100	0.1 to 0.5	–	–	–	–	0.1 to 0.5
CNC(=O)c1ccc2c(c1)nc(-c1c(O)cccc1F)n2[C@H]1CCC[C@@H](NC(=O)c2ccc(Cl)s2)C1 [Compound 177]	< 100	< 0.1	–	–	–	–	0.1 to 0.5
CNC(=O)c1ccc2c(c1)nc(-c1cccs1)n2[C@H]1CCC[C@@H](NC(=O)c2ccc(C#N)s2)C1 [Compound 181]	< 100	≥ 1	–	–	–	–	≥ 1
CNC(=O)c1ccc2c(c1)nc(-c1ncccc1C#N)n2[C@H]1CCC[C@@H](NC(=O)c2ccc(Br)s2)C1 [Compound 185]	< 100	0.5 to 1	–	–	–	–	0.5 to 1
CNC(=O)c1ccc2c(c1)nc(-c1ncccc1C#N)n2[C@H]1CCC[C@@H](NC(=O)c2ccc(Cl)s2)C1 [Compound 192]	< 100	0.5 to 1	–	–	–	–	0.5 to 1
CNC(=O)c1ccc2c(c1)nc(-c1cccs1)n2[C@H]1CCC[C@@H](NC(=O)c2ccc(Br)s2)C1 [Compound 193]	–	0.1 to 0.5	500 to 1000	0.5 to 1	–	–	–
CNC(=O)c1ccc2c(c1)nc(-c1ncccc1F)n2[C@H]1CCC[C@@H](NC(=O)c2ccc(Cl)s2)C1 [Compound 197]	< 100	< 0.1	< 100	–	–	–	–

Further lines, with some results ahead:

IC50 (BCAT2) [nM]	IC50 ([1]; Homo sapiens, 24 h) [µM]	SMILES	IC50 (BCAT1) [nM]	IC50 (GM00371 cells; Homo sapiens, 24 hours) [µM]	IC50 ([1]; 24 hours) [µM]	IC50 (GM00371 cells; 24 hours) [µM]	IC50 (GM00371 cells; Homo sapiens, 24 h) [µM]
100 to 500	0.5 to 1	O=C(N[C@H]1CCC[C@@H](n2c(-c3ccccn3)nc3cc(C(F)(F)F)ccc32)C1)c1ccc(Br)s1 [Compound 140]	–	–	–	–	0.5 to 1
< 100	≥ 1	CNC(=O)c1ccc2c(c1)nc(-c1ccccn1)n2[C@H]1CCC[C@@H](NC(=O)c2ccc(Cl)s2)C1 [Compound 141]	–	–	–	–	≥ 1
< 100	0.1 to 0.5	CNC(=O)c1ccc2c(c1)nc(-c1c(F)cccc1F)n2[C@H]1CCC[C@@H](NC(=O)c2ccc(C#N)s2)C1 [Compound 174]	–	–	–	–	0.5 to 1
< 100	< 0.1	CNC(=O)c1ccc2c(c1)nc(-c1cc(F)ccc1F)n2[C@H]1CCC[C@@H](NC(=O)c2ccc(Br)s2)C1 [Compound 175]	–	–	–	–	0.1 to 0.5
< 100	0.1 to 0.5	CNC(=O)c1ccc2c(c1)nc(-c1ccc(F)cc1F)n2[C@H]1CCC[C@@H](NC(=O)c2ccc(Br)s2)C1 [Compound 176]	–	–	–	–	0.1 to 0.5
< 100	≥ 1	CNC(=O)c1ccc2c(c1)nc(-c1ncccc1C#N)n2[C@H]1CCC[C@@H](NC(=O)c2ccc(C#N)s2)C1 [Compound 178]	–	–	–	–	≥ 1
< 100	< 0.1	CNC(=O)c1ccc2c(c1)nc(-c1ncccc1F)n2[C@H]1CCC[C@@H](NC(=O)c2ccc(Br)s2)C1 [Compound 199]	< 100	–	–	–	–
< 100	0.1 to 0.5	O=C(N[C@@H]1CCC[C@H](n2c(-c3ccccn3)nc3cc(Cl)ncc32)C1)c1ccc(Br)s1 [Compound 296]	–	–	–	–	0.5 to 1

Source: patent US20220274967A1, “BCAT MODULATION” (Icagen, LLC, priority 2019, published 2022)
